Assay results reported in patent US9284528B2, “Use of stem cell conditioned medium to inhibit oxidation for anti-aging skin” (GROWGENE BIOTECH INC., priority 2014, dated 2016).

Assay: ABTS free radicals scavenging assay (antioxidant assay kit, Cayman)
Assay type: biochemical
Settings: 0.0625-1 mM tested; 5 minutes room temperature; absorbance 750 nm
Protocol: An antioxidant assay kit (Cayman) was used for this assay according to the instructions. Each of samples including 10 μl of 6.25%˜100% conditioned medium or 0.0625˜1 mM L-ascorbic acid (L-AA) was mixed with 10 μl of metmyoglobin, 150 μl chromogen, and 40 μl hydrogen peroxide for reaction at room temperature for 5 minutes. Because stem cell conditioned medium (CM) is a composite component, a percentage (%) instead of a concentration (mM) is presented as the unit of CM herein.
Referring to FIG. 2A, it is a representative diagram showing the effect of WJMSC-CM on scavenging ABTS free radicals. Various concentration of L-ascorbic acid (L-AA) or stem cell conditioned medium (CM) was mixed with an appropriate amount of ABTS and oxidants for reaction. ABTS has an absorption peak at 750 nm. This assay is based on the ability of antioxidants to reduce ABTS into its colourless form and the extent of decolourisation corresponding to the absorbance reduction of ABTS.

- IC50: 806 µM
SMILES: O=C1O[C@H]([C@@H](O)CO)C(O)=C1O [L-ascorbic acid]
